Data from the supplement of paper PMC10307832.

Columns and labels:
Experiment in all cases: relative viability (nuclei count vs DMSO), 5 days (fraction); higher = more cells survive
[1] = compound: CC1=C(N=C(N=C1N)[C@H](CC(=O)N)NC[C@@H](C(=O)N)N)C(=O)N[C@@H]([C@H](C2=CN=CN2)OC3C(C(C(C(O3)CO)O)O)OC4C(C(C(C(O4)CO)O)OC(=O)N)O)C(=O)N[C@H](C)[C@H]([C@H](C)C(=O)N[C@@H]([C@@H](C)O)C(=O)NCCC5=NC(=CS5)C6=NC(=CS6)C(=O)NCCC[S+](C)C)O [Bleomycin] + Nc1ncn([C@H]2C[C@H](O)[C@@H](CO)O2)c(=O)n1 [Decitabine] (partner 2 µM); details: main component drawn
In short: (§1)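 Five library-drug doses in √10 steps were combined with a fixed anchor-drug dose, or a single drug was given alone, by pin tool to lung cancer cell lines in 1536-well plates the day after seeding. Nuclei were stained and counted after 5 days. Relative viability is the nuclei count in treated wells over that in vehicle wells, taken as the median of duplicate plates.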

[2] = compound: CC1=C(N=C(N=C1N)[C@H](CC(=O)N)NC[C@@H](C(=O)N)N)C(=O)N[C@@H]([C@H](C2=CN=CN2)OC3C(C(C(C(O3)CO)O)O)OC4C(C(C(C(O4)CO)O)OC(=O)N)O)C(=O)N[C@H](C)[C@H]([C@H](C)C(=O)N[C@@H]([C@@H](C)O)C(=O)NCCC5=NC(=CS5)C6=NC(=CS6)C(=O)NCCC[S+](C)C)O [Bleomycin] + C[C@@H](Oc1cc(-c2cnn(C3CCNCC3)c2)cnc1N)c1c(Cl)ccc(F)c1Cl [Crizotinib] (partner 1 µM); details: main component drawn
In short: as §1

[3] = compound: CC1=C(N=C(N=C1N)[C@H](CC(=O)N)NC[C@@H](C(=O)N)N)C(=O)N[C@@H]([C@H](C2=CN=CN2)OC3C(C(C(C(O3)CO)O)O)OC4C(C(C(C(O4)CO)O)OC(=O)N)O)C(=O)N[C@H](C)[C@H]([C@H](C)C(=O)N[C@@H]([C@@H](C)O)C(=O)NCCC5=NC(=CS5)C6=NC(=CS6)C(=O)NCCC[S+](C)C)O [Bleomycin] + COc1cccc2cc(-c3nc([C@H]4CC[C@H](C(=O)O)CC4)n4ncnc(N)c34)[nH]c12 [OSI-027] (partner 0.5 µM); details: main component drawn
In short: as §1

[4] = compound: COc1cc([C@@H]2c3cc4c(cc3[C@@H](O[C@@H]3O[C@@H]5CO[C@@H](C)O[C@H]5[C@H](O)[C@H]3O)[C@H]3COC(=O)[C@H]23)OCO4)cc(OC)c1O [Etoposide] + COc1cccc2cc(-c3nc([C@H]4CC[C@H](C(=O)O)CC4)n4ncnc(N)c34)[nH]c12 [OSI-027] (partner 0.5 µM)
In short: as §1

| Cell Line | relative viability ([1]; first compound 0.01 µM) | relative viability ([1]; first compound 0.03162 µM) | relative viability ([1]; first compound 0.1 µM) | relative viability ([1]; first compound 0.3162 µM) | relative viability ([1]; first compound 1 µM) | relative viability ([2]; first compound 0.01 µM) | relative viability ([2]; first compound 0.03162 µM) | relative viability ([2]; first compound 0.1 µM) | relative viability ([2]; first compound 0.3162 µM) | relative viability ([2]; first compound 1 µM) | relative viability ([3]; first compound 0.01 µM) | relative viability ([3]; first compound 0.03162 µM) | relative viability ([3]; first compound 0.1 µM) | relative viability ([3]; first compound 0.3162 µM) | relative viability ([3]; first compound 1 µM) | relative viability ([4]; first compound 0.01 µM) | relative viability ([4]; first compound 0.03162 µM) | relative viability ([4]; first compound 0.1 µM) | relative viability ([4]; first compound 0.3162 µM) | relative viability ([4]; first compound 1 µM) |
| --- | --- | --- | --- | --- | --- | --- | --- | --- | --- | --- | --- | --- | --- | --- | --- | --- | --- | --- | --- | --- |
| COR-L23 | 0.378 | 0.407 | 0.287 | 0.188 | 0.147 | 0.444 | 0.317 | 0.226 | 0.0998 | 0.099 | 0.566 | 0.696 | 0.415 | 0.139 | 0.122 | 0.76 | 0.741 | 0.436 | 0.532 | 0.25 |
| NCI-H2126 | 0.626 | 0.621 | 0.601 | 0.567 | 0.566 | 0.932 | 1.1 | 0.982 | 0.948 | 0.801 | 0.644 | 0.774 | 0.738 | 0.522 | 0.585 | 0.742 | 0.662 |  | 0.706 | 0.506 |
| LC-2-ad | 0.72 | 0.737 | 0.541 | 0.309 | 0.292 | 0.428 | 0.404 | 0.326 | 0.226 | 0.275 | 0.552 | 0.711 | 0.382 | 0.302 | 0.221 | 0.81 | 0.839 | 0.473 | 0.42 | 0.25 |
| NCI-H1915 | 0.259 | 0.237 | 0.238 | 0.193 | 0.141 | 0.661 | 0.665 | 0.45 | 0.337 | 0.183 | 0.434 | 0.429 | 0.373 | 0.21 | 0.144 | 0.598 | 0.637 | 0.492 | 0.572 | 0.504 |
| NCI-H2023 | 0.195 | 0.195 | 0.152 | 0.113 | 0.0909 | 0.473 | 0.447 | 0.346 | 0.131 | 0.104 | 0.297 | 0.328 | 0.284 | 0.183 | 0.111 | 0.4 | 0.451 | 0.223 | 0.286 | 0.119 |
| COR-L 105 | 0.594 | 0.588 | 0.519 | 0.419 | 0.371 | 0.587 | 0.875 | 0.52 | 0.368 | 0.364 | 0.591 | 0.567 | 0.639 | 0.339 | 0.377 | 0.756 | 0.851 | 0.432 | 0.669 | 0.556 |
| SK-LU-1 | 0.598 | 0.631 | 0.655 | 0.554 | 0.492 | 0.816 | 1.11 | 0.797 | 0.446 | 0.428 | 0.338 | 0.417 | 0.366 | 0.272 | 0.206 | 0.358 | 0.373 | 0.251 | 0.174 | 0.172 |
| LXF-289 | 0.381 | 0.407 | 0.406 | 0.24 | 0.161 | 0.725 | 0.678 | 0.679 | 0.239 | 0.149 | 0.647 | 0.781 | 0.693 | 0.315 | 0.169 | 0.783 | 0.784 | 0.67 | 0.71 | 0.431 |
| PC-3 [JPC-3] | 0.806 | 0.69 | 0.704 | 0.621 | 0.547 | 0.811 | 1 | 0.872 | 0.689 | 0.485 | 0.687 | 0.789 | 0.648 | 0.506 | 0.41 | 0.657 | 0.731 | 0.636 | 0.736 | 0.689 |
| NCI-H661 | 0.552 | 0.572 | 0.434 | 0.37 | 0.315 | 0.82 | 0.943 | 0.745 | 0.508 | 0.425 | 0.632 | 0.683 | 0.4 | 0.23 | 0.235 | 0.702 | 0.712 | 0.619 | 0.494 | 0.267 |
| NCI-H1666 | 0.699 | 0.56 | 0.505 | 0.442 | 0.388 | 0.717 | 0.57 | 0.469 | 0.339 | 0.325 | 0.678 | 0.671 | 0.636 | 0.515 | 0.408 | 0.853 | 0.812 | 0.678 | 0.528 | 0.408 |
| NCI-H2085 | 0.558 | 0.551 | 0.418 | 0.421 | 0.339 | 0.608 | 0.723 | 0.671 | 0.372 | 0.404 | 0.832 | 0.761 | 0.574 | 0.317 | 0.44 | 0.542 | 0.705 | 0.533 | 0.676 | 0.373 |
| NCI-H1734 | 0.453 | 0.477 | 0.414 | 0.272 | 0.2 | 0.581 | 0.545 | 0.554 | 0.219 | 0.198 | 0.565 | 0.544 | 0.465 | 0.254 | 0.226 | 0.636 | 0.617 | 0.406 | 0.497 | 0.302 |
